Data as given in patent publication US9717769B2, “Method for protecting kidney function” (FUGENBIOPHARMA CO., LTD., priority 2015, dated 2017).

Tested on: MDCK cell line
Experiment: MTT analysis of kidney-protection effect against cisplatin-induced renal toxicity
Assay type: cell-based, canine
Conditions: treated with cisplatin only (5 μM), MTT 24 hours after cisplatin; relative to negative control (neither cisplatin nor EPS) set at 100%
Method: MTT analysis was conducted to confirm the kidney-protection effect of the EPS prepared in Preparation Example 4 against renal toxicity caused by an anti-cancer agent.
First, MDCK cell line (Korean Cell Line Bank, Korea) was cultured in DMEM medium supplemented with 10% fetal bovine serum, 100 μg/mL streptomycin and 100 U/mL penicillin at 37° C. and 5% CO2. 100 μL each of the cultured cells was dispensed to 96-well plate at 2×10^4 cells/mL, and cultured for 24 hours. The EPS was added thereto to a concentration of 25, 50 or 250 μg/mL, and 2 hours thereafter, 5 μM of cisplatin was added thereto.
24 hours after cisplatin was added, 10 μL of MTT (1 mg/mL) dissolved in PBS was added to each well, subjected to reaction for 4 hours. After 4 hours, the formation of formazan was confirmed, and the supernatant was completely removed so that formazan may not be dispersed. Then, the resultant was added to dissolve, in 100 μL of DMSO and dissolved, followed by the measurement of the absorbance at 570 nm using ELISA reader.
The results are shown in FIG. 1 as relative values when the value of the negative control group treated with neither cisplatin nor EPS was set at 100%.

In the case of N.N.[Cl][Pt][Cl] [cisplatin, cis-diammine-dichloroplatinum [II]], the “survival rate of MDCK cell line” value is reported as “about 60%”.
